# Assay results reported in ChEMBL document CHEMBL1671815, “A practical use of ligand efficiency indices out of the fragment-based approach: ligand efficiency-guided lead identification of soluble epoxide hydrolase inhibitors” (J Med Chem, 2011).
# Legend:
# [1] = biological target: T1, Bifunctional epoxide hydrolase 2 (Rattus norvegicus, UniProt P80299); assay: Inhibition of rat soluble epoxide hydrolase in cell free system
# T1 sequence (P80299 whole entry): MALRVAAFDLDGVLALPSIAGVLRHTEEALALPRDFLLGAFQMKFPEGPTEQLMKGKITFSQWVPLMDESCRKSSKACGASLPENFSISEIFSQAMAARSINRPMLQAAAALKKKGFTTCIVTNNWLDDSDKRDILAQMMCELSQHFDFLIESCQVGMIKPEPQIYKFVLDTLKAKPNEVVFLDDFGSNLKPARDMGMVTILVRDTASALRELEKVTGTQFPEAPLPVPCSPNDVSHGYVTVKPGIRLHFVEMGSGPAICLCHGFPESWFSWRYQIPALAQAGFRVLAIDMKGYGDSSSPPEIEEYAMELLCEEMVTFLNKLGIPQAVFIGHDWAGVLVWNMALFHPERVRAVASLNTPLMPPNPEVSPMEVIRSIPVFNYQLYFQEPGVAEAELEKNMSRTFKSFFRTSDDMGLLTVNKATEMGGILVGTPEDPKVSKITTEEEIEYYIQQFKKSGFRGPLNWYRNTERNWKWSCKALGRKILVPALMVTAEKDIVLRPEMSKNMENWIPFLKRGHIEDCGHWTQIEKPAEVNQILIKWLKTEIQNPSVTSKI
# HepG2 = assay: Cytotoxicity against human HepG2 cells up to 100 uM; format: cell-based
# [2] = biological target: T2, Bifunctional epoxide hydrolase 2 (Homo sapiens, UniProt P34913); assay: Inhibition of human soluble epoxide hydrolase in cell free system
# T2 sequence (P34913 whole entry): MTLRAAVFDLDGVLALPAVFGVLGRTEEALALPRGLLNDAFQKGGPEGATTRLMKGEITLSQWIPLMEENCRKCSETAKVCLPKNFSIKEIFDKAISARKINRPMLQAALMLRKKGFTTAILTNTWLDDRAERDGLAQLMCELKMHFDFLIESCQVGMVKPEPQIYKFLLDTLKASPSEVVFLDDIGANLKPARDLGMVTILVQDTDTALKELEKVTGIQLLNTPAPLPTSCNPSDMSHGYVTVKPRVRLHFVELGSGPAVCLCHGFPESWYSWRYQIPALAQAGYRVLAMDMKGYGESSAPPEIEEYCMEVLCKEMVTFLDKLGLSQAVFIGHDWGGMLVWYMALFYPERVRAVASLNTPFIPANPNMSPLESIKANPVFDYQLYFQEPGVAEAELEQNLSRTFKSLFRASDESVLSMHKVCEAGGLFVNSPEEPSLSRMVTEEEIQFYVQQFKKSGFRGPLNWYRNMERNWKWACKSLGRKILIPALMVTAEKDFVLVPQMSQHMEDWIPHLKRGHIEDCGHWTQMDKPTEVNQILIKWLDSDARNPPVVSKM
# Liver microsomes [3] = assay: Intrinsic clearance in rat liver microsome measured per mg of protein; format: ADME
# Cytochrome P450 1A2 = biological target: T3, Cytochrome P450 1A2 (Homo sapiens, UniProt P05177); assay: Inhibition of CYP1A2; format: ADME
# T3 sequence (P05177 whole entry): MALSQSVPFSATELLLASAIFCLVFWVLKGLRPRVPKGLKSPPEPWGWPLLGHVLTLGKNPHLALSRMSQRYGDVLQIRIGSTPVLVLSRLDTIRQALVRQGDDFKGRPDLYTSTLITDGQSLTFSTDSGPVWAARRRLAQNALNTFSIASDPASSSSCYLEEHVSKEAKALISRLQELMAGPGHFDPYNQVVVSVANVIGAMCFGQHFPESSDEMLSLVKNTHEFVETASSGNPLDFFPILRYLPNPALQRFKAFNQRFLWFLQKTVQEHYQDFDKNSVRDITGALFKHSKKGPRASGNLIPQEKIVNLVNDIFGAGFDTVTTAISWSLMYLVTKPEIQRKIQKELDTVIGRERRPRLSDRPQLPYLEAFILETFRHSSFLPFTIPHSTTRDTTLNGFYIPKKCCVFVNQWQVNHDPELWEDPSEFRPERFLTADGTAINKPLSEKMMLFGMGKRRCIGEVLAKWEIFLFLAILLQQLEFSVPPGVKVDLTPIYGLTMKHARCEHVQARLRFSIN
# Cytochrome P450 2C19 = Cytochrome P450 2C19 (Homo sapiens, UniProt P33261); assay: Inhibition of CYP2C19; format: ADME
# Chain of Cytochrome P450 2C19 (P33261 whole entry): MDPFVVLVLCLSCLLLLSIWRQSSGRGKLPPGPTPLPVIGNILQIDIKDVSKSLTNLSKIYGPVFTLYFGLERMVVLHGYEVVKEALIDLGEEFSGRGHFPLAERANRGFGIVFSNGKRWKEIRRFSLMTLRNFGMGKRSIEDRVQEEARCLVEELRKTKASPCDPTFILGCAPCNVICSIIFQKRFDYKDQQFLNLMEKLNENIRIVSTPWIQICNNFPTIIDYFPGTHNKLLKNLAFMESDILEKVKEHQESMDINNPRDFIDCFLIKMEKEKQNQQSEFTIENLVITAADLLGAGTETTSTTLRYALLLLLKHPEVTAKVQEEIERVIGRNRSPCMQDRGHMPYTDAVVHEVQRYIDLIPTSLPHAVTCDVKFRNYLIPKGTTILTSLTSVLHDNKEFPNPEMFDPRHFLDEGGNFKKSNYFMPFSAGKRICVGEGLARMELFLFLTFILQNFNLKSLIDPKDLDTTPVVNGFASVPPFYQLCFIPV
# [4] = biological target: T2, Bifunctional epoxide hydrolase 2; assay: Inhibition of soluble epoxide hydrolase in human HepG2 cells after 30 mins; format: cell-based
# [5] = Aqueous solubility of the compound at pH 7.4; format: physicochemical
# Liver microsomes [6] = assay: Intrinsic clearance in human liver microsome measured per mg of protein; format: ADME
IC50 [1] [nM],IC50 [2] [nM],CL (Liver microsomes [3]) [µL/min/mg],IC50 (Cytochrome P450 1A2) [nM],IC50 (Cytochrome P450 2C19) [nM],IC50 [4] [nM],solubility [5] [µg/mL],CL (Liver microsomes [6]) [µL/min/mg],Compound,Activity (HepG2)
13,–,–,–,–,–,–,–,CC(C)c1noc(C2CCN(C(=O)N[C@H]3C[C@@H]3c3ccccc3)CC2)n1 (racemic),Non-toxic
–,30.2,> 100,< 10000,< 10000,–,–,–,CN(C)c1ccc(CNC(=O)N[C@H]2C[C@@H]2c2ccccc2)cc1 (racemic),–
1.7,2.29,> 100,–,–,7.94,< 1,–,O=C(NC1CCN(c2ccccc2)CC1)N[C@H]1C[C@@H]1c1ccccc1 (racemic),–
20,39.8,> 100,–,–,81.3,< 1,> 100,Cc1nc2cc(NC(=O)N[C@H]3C[C@@H]3c3ccccc3)ccc2o1 (racemic),–
240,61.7,–,–,< 10000,–,< 1,–,O=C(N[C@H]1C[C@@H]1c1ccccc1)c1ccc2nonc2c1 (racemic),–
3.02,6.46,> 100,–,< 10000,4.68,< 1,> 100,COc1cccc2c1CC(C(=O)N[C@H]1C[C@@H]1c1ccccc1)CC2 (mixture of isomers),–
